How the values were obtained:
[1] = target: T1, HGFR (Homo sapiens, UniProt P08581); assay: Receptor binding assay (HGFR), ELISA; conditions: peptide coated 50 μg/25 μl, O.D. 450 nm
T1 construct: purchased R&D Systems
Protocol: On an ELISA plate, 50 μg/25 μl peptide and 25 μl of a coating buffer (20 mM sodium phosphate pH 9.6) were added and mixed, and then incubated at 4° C. overnight. After washing three times with PBST (300 μl), the blocking with 200 μl of a blocking buffer (3% BSA) was carried out at room temperature for 2 hours. After washing three times with PBST (300 μl), HGFR (R&D Systems) was added at 0.5 μg/1 ml per well, followed by incubation at room temperature for 2 hours. After washing three times with PBST (300 μl), anti-human IgG-HRP was diluted at 1:1,000, which was then added at 100 μl per well, followed by incubation at room temperature for 2 hours. After washing three times with PBST (300 μl), 100 μl of TMB solution was added, followed by color development. 50 μl of a stop solution (3 N H2SO4) was added to stop the reaction, and then the absorbance was read at O.D. 450 nm.

[2] = test system: Ha3-II and keratin 14; assay: RT-PCR of keratinocyte differentiation markers in HaCaT cells; assay type: cell-based, human; conditions: HaCaT, 0.1, 1 and 10 μg/ml, 24 hours
Protocol: The cells were treated with the peptides at different concentrations (0.1 μg/ml, 1 μg/ml, and 10 μg/ml), and then incubated in an incubator at 37° C. for 24 hours. […] RT-PCR was carried out using primers of respective markers (Ha3-II and keratin 14) and PCR pre-mix (Intron) to measure the changes in the expression of the markers.
Target-specific primer sequences used in PCR for keratinocyte differentiation markers were as follows: Ha3-II forward primer sequence, 5′-[…]-3′ and Ha3-II reverse primer, 5′-[…]-3′ (annealing temperature, 60° C.); Keratin14 forward primer sequence, 5′-[…]-3′ and Keratin14 reverse primer, 5′-[…]-3′ (annealing temperature, 60° C.)

[3] = test system: RAW264.7 cells; assay: Proliferation assay of macrophages treated with TNF-α (SRB); assay type: cell-based, mouse; conditions: 100 ng/ml TNF-α and 50 μg/ml peptide, 72 hours
Protocol: The mouse macrophage cell line, raw 264.7 cells were seeded on a 48-well plate at a density of 1×10^4 cells/well. After stabilization for 24 hours, the cells were incubated in a serum-free medium for 6 hours, and then simultaneously treated with 100 ng/ml TNF-α and 50 μg/ml peptide, followed by incubation for 72 hours. After the completion of the incubation, the supernatant was removed and the cells were immobilized using ethanol, and after the cell immobilization was ended, the cells were washed three times with phosphate buffer saline (PBS). After the wash solution was removed, the cells were treated with colorimetric SRB solution, and sufficiently washed with 1% acetic acid. Then, the cells were observed using a microscope to observe the conditions of living cells. The absorbance for the solution decolorized with 20 mM tris was read at UV light of 560 nm, thereby measuring the survival conditions of cells.

[4] = test system: IL-8; assay: IL-8 ELISA in THP-1 cells treated with TNF-α; assay type: cell-based, human; conditions: 10 μg/ml pre-treatment 30 minutes, 50 ng/ml TNF-α, 24 hours
Protocol: The human monocytes, THP-1 cells were seeded on a 24-well plate at a density of 2×10^6 cells/well. After incubation overnight, the cells were pre-treated with the samples at 10 μg/ml for 30 minutes, and treated with 50 ng/ml TNF-α, followed by incubation for 24 hours. The cell incubation medium was obtained, followed by centrifugation at 13,000 rpm for 10 minutes at 4° C., and then the supernatant was separated. ELISA was carried out using IL-1b and IL-8 ELISA kit (R&D system).

[5] = test system: NF-κB; assay: Western blotting in HaCaT cells, nuclear translocation of NF-κB activated by TNF-α; assay type: cell-based, human; conditions: peptide at different concentrations
[6] = test system: Wnt3a; assay: Western blotting of hair growth protein Wnt3a; assay type: cell-based, human; conditions: HFDPC, 0.1-50 μg/ml, 24 hours
Protocol: In order to observe the changes in the expression of IGF1, KGF, and Wnt3a, which are proteins involved in the development of hair roots in the human hair follicle dermal papilla cells, the cells were treated with the peptides of the present invention for 24 hours, and then subjected to western blotting using specific antibodies, thereby observing the changes in hair growth-related proteins.
The cells were stabilized by the incubation overnight, and then treated with the peptides at different concentrations (0.1-50 μg/ml) for 24 hours. The cells were treated with the cell lysis buffer to obtain a lysate, followed by protein quantification, and then western blotting was performed with respect to IGF-1, KGF, and Wnt3a.
The test was carried out using anti-IGF-1 antibody (Santa Cruz Biotechnology, USA), anti-KGF antibody (Santa Cruz Biotechnology, USA), and anti-Wnt3a antibody (Santa Cruz Biotechnology, USA).

[7] = test system: MC3T3-E1 cells; assay: ALP staining of MC3T3-E1 cells; assay type: cell-based, mouse; conditions: MC3T3-E1, 10 μg/ml and 50 μg/ml, 14 days
Protocol: The mouse osteoblast line, MC3T3-E1 cells were seeded on a 24-well plate at 4×10^4 cells/well, and then incubated overnight. After the exchange with a medium containing 50 μg/ml ascorbic acid+10 mM b-glycerophosphate, the cells were treated with each peptide at concentrations of 10 μg/ml and 50 μg/ml, and incubated for 14 days to induce differentiation. Here, the medium exchange every three days and the treatment with the peptide were repeated (positive control: BMP2 […]). The incubation-completed plate well was washed two times with PBS, and then the cells were immobilized with an immobilization buffer, in which acetone, 37% formaldehyde, and citric acid solution were mixed, for 30 seconds. The following staining was carried out using the leukocyte alkaline phosphatase staining kit (SIGMA).
The cells were treated with a mixture, in which an FBB-alkaline solution was mixed with a sodium nitrite solution at 1:1, for 2 minutes, and then treated with a buffer composed of distilled water and naphthol AS-BI alkaline solution, followed by color development in an incubator at 37° C. for 1 hour.

[8] = test system: TNFR; assay: Receptor binding assay (TNFR), ELISA; conditions: peptide coated 50 μg/25 μl, O.D. 450 nm, positive control TNF-α

T1 sequence (P08581 25-1390): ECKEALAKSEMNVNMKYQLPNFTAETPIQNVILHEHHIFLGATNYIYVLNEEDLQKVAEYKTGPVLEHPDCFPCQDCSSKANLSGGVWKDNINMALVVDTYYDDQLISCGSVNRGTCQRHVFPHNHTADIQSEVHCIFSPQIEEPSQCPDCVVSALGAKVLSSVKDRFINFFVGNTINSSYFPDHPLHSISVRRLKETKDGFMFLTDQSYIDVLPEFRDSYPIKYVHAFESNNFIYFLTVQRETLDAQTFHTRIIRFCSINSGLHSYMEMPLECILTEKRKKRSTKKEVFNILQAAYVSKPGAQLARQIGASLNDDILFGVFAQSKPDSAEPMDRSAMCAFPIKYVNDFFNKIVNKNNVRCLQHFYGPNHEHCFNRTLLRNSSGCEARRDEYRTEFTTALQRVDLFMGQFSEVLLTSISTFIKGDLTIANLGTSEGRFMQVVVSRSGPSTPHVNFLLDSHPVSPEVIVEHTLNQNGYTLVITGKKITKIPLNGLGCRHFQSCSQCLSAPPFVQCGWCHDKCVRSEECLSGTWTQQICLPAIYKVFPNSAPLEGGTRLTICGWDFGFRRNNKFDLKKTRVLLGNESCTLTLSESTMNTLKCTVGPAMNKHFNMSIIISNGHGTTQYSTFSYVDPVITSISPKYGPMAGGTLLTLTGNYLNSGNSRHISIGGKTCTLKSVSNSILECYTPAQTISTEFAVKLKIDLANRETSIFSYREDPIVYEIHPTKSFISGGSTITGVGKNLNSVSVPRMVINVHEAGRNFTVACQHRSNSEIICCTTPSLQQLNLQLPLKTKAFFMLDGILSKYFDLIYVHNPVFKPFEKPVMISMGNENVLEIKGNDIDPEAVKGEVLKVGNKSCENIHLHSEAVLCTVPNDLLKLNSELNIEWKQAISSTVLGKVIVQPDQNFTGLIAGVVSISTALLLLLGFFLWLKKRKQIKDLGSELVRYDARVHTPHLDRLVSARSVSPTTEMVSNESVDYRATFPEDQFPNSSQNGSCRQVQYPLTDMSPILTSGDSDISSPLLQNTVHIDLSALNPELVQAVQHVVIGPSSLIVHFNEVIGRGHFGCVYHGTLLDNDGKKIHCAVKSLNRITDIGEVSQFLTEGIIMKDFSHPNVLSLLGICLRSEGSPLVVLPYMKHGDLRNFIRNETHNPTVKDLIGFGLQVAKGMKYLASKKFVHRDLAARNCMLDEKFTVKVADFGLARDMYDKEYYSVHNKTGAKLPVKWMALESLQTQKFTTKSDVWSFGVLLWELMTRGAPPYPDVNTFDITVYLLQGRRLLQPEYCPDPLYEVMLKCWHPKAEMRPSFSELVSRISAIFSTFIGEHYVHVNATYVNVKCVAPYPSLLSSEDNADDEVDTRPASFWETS

## NH2-Ala-Cys-Arg-Ser-Ala-Ile-Gly-Arg-Pro-Cys-COOH (H-ACRSAIGRPC-OH; cysteine pairing not given here) [SEQ ID NO: 1]
[1]
  binding affinity on HGFR: high binding affinity
[2]
  mRNA expression levels of differentiation markers Ha3-II and keratin 14: keratinocyte differentiation promoting effect
[3]
  proliferation of RAW264.7 cells increased with TNF-α treatment: reduced
[4]
  expression of IL-8 increased by TNF-α treatment: inhibited
[5]
  nuclear translocation of NF-κB activated by TNF-α treatment: reduced
[6]
  expression of Wnt3a: increased
[7]
  ALP expression (ALP staining): increased
[8]
  binding affinity to TNFR: high binding affinity

— US10238710B2, “Peptide having anti-inflammatory, osteogenic and hair growth promoting activities, and use of same” (CAREGEN CO., LTD., priority 2014, dated 2019)
